This note sets out measurements from patent US11419834B2, “Methods for treating diseases or infections caused by or associated with H. pylori using a halogenated salicylanilide” (Rhode Island Hospital, priority 2019, dated 2022).

SMILES strings stand for the structures. In brackets after ≈: the same amount, converted by molar mass. Read-outs that look alike come from different tables or passages of the source.

In general, MIC refers to the lowest concentration found to suppress growth. As a reminder, the MBC is the lowest tested concentration that kills the bacteria rather than only halting them.

One assay deals with H. pylori bacteria. The experiment in a line: Scanning electron microscopy of morphology. The class given is cell-based, Helicobacter pylori.
In assay [1] the test system is H. pylori (strain 60190). Kind of assay: Checkerboard synergy assay (FICI). The format is cell-based, Helicobacter pylori. As to conditions: for FICI value Niclosamide: test compound in combination with niclosamide. The procedure: References to “synergy” of the halogenated salicylanilide with other therapeutic agents described herein refer to an activity which is greater than the sum of the individual agents used alone. The degree of antimicrobial synergy may be assessed by calculating the fractional inhibitory concentration index (FICI) using the checkerboard assay described in the Examples herein. For two agents A and B, the FICI is calculated as: FICI=MICA-B in combination/(MICA alone+MICB alone) Synergy occurs when the FICI is ≤0.5; partial synergy for 0.5≤FICI≤1.0; no interaction […]; and antagonism FICI >4.0.
Antibacterial synergy was tested using the checkerboard assay using the method described in Zheng Z et al. (Antimicrob. Agents Chemother. 2017 July; 61(7)).
Niclosamide was combined with antibiotics and proton pump inhibitors (PPIs). Cultures of H. pylori (strain 60190) were adjusted to OD600=0.06 and added to compound pairs that had been serially diluted in the same 96-well plates, vertically for one compound and horizontally for the other. Assays were carried out in triplicate as described in the antibacterial susceptibility assay described above. The combinatorial inhibitory concentration was indicated by the fractional inhibitory concentration index (FICI): FICI=MICA combination/MICA alone+MICB combination/MICB alone Paired combinations of compounds and their observed FICI are listed in Table 4. Synergistic activity, where the combined antibacterial effect of the 2 antimicrobial agents is more than the sum of their effects alone, is defined by FICI 0.5, antagonism by FICI >4.0 and ‘no interaction’ by FICI >0.5-4.0.

Assay [2] concerns H. pylori reference strain 60190 (ATCC 49503). Kind of assay: Broth microdilution assay, MIC. The class given is cell-based. The settings on record: Helicobacter pylori, ATCC49503, 72 h; H. pylori strain 60190; Müller-Hinton broth + 10% FBS, 3 days.
Another assay deals with H. pylori strain 60190. The experiment in a line: Minimum bactericidal concentration (plating from MIC assay). The format is cell-based, Helicobacter pylori.
Assay [3] has as its system H. pylori bacteria (strain 60190). Kind of assay: Multi-step mutation frequency (serial passage resistance study). The settings on record: for increase in MIC during continuous passage: passaged sequentially over 30 days. The class given is cell-based, Helicobacter pylori. The procedure:
To determine whether H. pylori can develop resistance against niclosamide, bacterial cells were suspended in MHB with 10% FBS at OD600=0.06 in the presence of serially diluted niclosamide and incubated, as described in the antibiotic susceptibility assays sub-section. The standard antibiotics amoxicillin and clarithromycin were used as controls. From the highest drug concentration allowing visible growth at sub-MIC concentration, aliquots were diluted (1:40) into fresh medium. These were used to inoculate the second set of serial drug dilutions as described by Dalhoff et al. (Clin Infect Ds. 2001 Mar. 15; 32 Suppl, 1:S16-22). After a 3-day incubation, H. pylori bacteria (strain 60190) were passaged sequentially over 30 days and the OD was recorded.

The next assay relates to H. Pylori 43504. The experiment in a line: Broth microdilution assay, MIC. As to conditions: Helicobacter pylori; strain H. Pylori 43504. The class given is cell-based. Background: Broth dilution looks for growth in wells or tubes with falling amounts of substance.
In assay [4] the test system is H. pylori (strain 60190). The experiment in a line: Effect of pH on MIC (broth microdilution). The format is cell-based, Helicobacter pylori. As to conditions: pH 7.0 to 5.2. The procedure:
The pH was adjusted to acidic condition with 1 N HCl. The minimal bactericidal concentration (MBC) was determined by plating 5 μL of broth culture from the MIC assay onto Müller-Hinton agar (BD Biosciences) supplemented with 10% FBS. After 72 h, the lowest concentration at which colonies were not observed was reported as the MBC.

For the next assay, the system named is H. Pylori 51932. Kind of assay: Broth microdilution assay, MIC. The format is cell-based. The settings on record: Helicobacter pylori; strain H. Pylori 51932.
The subject of another assay is H. Pylori 49503. Kind of assay: Broth microdilution assay, MIC. The class given is cell-based. The settings on record: Helicobacter pylori; strain H. Pylori 49503.
Assay [5] relates to H. pylori (strain 60190) adhered to AGS cells. Kind of assay: Adhesion of H. pylori to AGS cells. The format is cell-based, Helicobacter pylori. The settings on record: 0.1 μg/mL (10×MIC). The procedure: (§1) The AGS (Gastric adenocarcinoma cell lines) cell line was used to examine inhibition of adhesion and invasion of H. pylori (strain 60190) by niclosamide, as described by Schmitt et al. (Front Cell Infect Microbiol. 2013; 3:93). The AGS cells were grown in Dulbecco's Modified Eagle Medium (DMEM, ex. Gibco), supplemented with 10% fetal bovine serum (Gibco) and 1% penicillin/streptomycin (Gibco) and maintained at 37° C. in 5% C02. Then, 5×10^5 cells in antibiotic and serum-free DMEM were seeded in 6-well plates 24 hours prior to infection. H. pylori bacteria at a multiplicity of infection (MOI)=100 were added and allowed to adhere to the surface of the AGS cells. Planktonic bacteria were removed after 2 hours and DMEM with niclosamide (2×MIC) was then added to the wells containing the AGS. The mammalian cells were lysed by 0.1% saponin after 20 hours of incubation and the adhered bacteria were then serially diluted, plated in Brucella agar supplemented with 10% FBS, and incubated as described above. A control arm of DMSO and a comparator using amoxicillin at a concentration of 0.1 μg/mL (10×MIC) was also assessed. […]

Assay [6] has as its system IL-8 secretion from MKN-28 cells co-cultured with H. pylori. Kind of assay: IL-8 secretion, real-time RT-PCR. The format is cell-based. As to conditions: 10× MIC, H. pylori infected MKN-28 cells. The procedure: Real-Time (RT-PCR) was carried out to determine whether niclosamide has an inhibitory role in IL-8 secretion. MKN-28 cells were co-cultured with H. pylori (MOI=100) in the presence or absence of a test compound. At 24 hours, RNA was isolated from the infected host cells. cDNA was synthesized using the Verso cDNA (Invitrogen) synthesis kit according to manufacturer instructions. Quantitative real-time reactions were carried out in a Bio-Rad iTaq universal SYBR (Bio-Rad, Hercules, Calif. USA) one-step kit and a CFX98 real-time PCR cycler as described by Zheng et al. (Future Med. Chem. 2018, February; 10(3):283-296). The relative gene expression was calculated from Cq values using a ΔΔCq method.
On the technique in general: Quantitative PCR measures a nucleic acid by following its amplification.

For assay [7], the system named is AGS cells invaded by H. pylori. The experiment in a line: Invasion, gentamicin protection assay. The class given is cell-based, Helicobacter pylori. As to conditions: 0.1 μg/mL, 20 hours, AGS cells. The procedure: as §1
The mark [8] stands for this setting: Helicobacter pylori, H. pylori strain 60190, read-out: MBC.

Take `N#CC(C#N)=NNc1cccc(Cl)c1` [CCCP, carbonyl cyanide m-chlorophenylhydrazone]: in the assay on H. pylori bacteria (10 μM), the “morphology by SEM” value is “morphological changes and decreased cell size”.
With `COc1ccc2[nH]c([S+]([O-])Cc3ncc(C)c(OC)c3C)nc2c1` (stereo not shown) [Omeprazole, omeprazole], the “FICI value Niclosamide” value in the assay with H. pylori (strain 60190) [1] came to 0.625.
Same read-out and setting: the value for `COc1ccnc(C[S+]([O-])c2nc3ccc(OC(F)F)cc3[nH]2)c1OC` (stereo not shown) [Pantoprazole, pantoprazole] was 0.75.
Take `Cc1ncc([N+](=O)[O-])n1CCO` [Metronidazole, metronidazole]: the interaction with niclosamide entry in the assay with H. pylori (strain 60190) [1] (combination with niclosamide) is “partially synergistic”. For the same molecule, the “FICI value Niclosamide” value in the assay on H. pylori (strain 60190) [1] was found to be 0.75.
For the molecule `Cc1cc(C(C#N)c2ccc(Cl)cc2)c(Cl)cc1NC(=O)c1cc(I)cc(I)c1O` (stereo not shown) [Closantel, closantel], the minimal inhibitory concentration (MIC) in assay [2] worked out at 16 µg/mL. Moreover, the MBC turned out to be 16.0 µg/mL (≈ 24.1 µM) in the assay with H. pylori strain 60190 (H. pylori strain 60190) and 16 µg/mL (≈ 24.1 µM) with H. pylori strain 60190 (setting [8]).
Regarding `O=C(Nc1cc(Cl)cc(Cl)c1O)c1c(O)c(Cl)cc(Cl)c1Cl` [Oxyclozanide, oxyclozanide], the MIC in assay [2] is 2 µg/mL. Further, the MBC with H. pylori strain 60190 (setting [8]) is 4 µg/mL (≈ 9.96 µM).
As to `CC[C@H]1OC(=O)[C@H](C)[C@@H](O[C@H]2C[C@@](C)(OC)[C@@H](O)[C@H](C)O2)[C@H](C)[C@@H](O[C@@H]2O[C@H](C)C[C@H](N(C)C)[C@H]2O)[C@](C)(OC)C[C@@H](C)C(=O)[C@H](C)[C@@H](O)[C@]1(C)O` [Clarithromycin, clarithromycin], the “FICI value Niclosamide” value with H. pylori (strain 60190) [1] is 1.0. Besides, the “change in MIC through at least 10 passages” value in assay [3] was determined as 2 fold. Besides, the “exposure time after which MIC increased” value in assay [3] (continuous exposure, 30 day study) is given as > 24 days. The “increase in MIC during continuous passage” value in [3] is given as 4 fold. In addition, the minimal inhibitory concentration (MIC) was found to be 0.005 µg/mL (≈ 0.00668 µM) with H. Pylori 43504, 0.005 µg/mL (≈ 0.00668 µM) with H. Pylori 51932, 0.0025 µg/mL (≈ 0.00334 µM) in the assay with H. Pylori 49503 and 0.0025 µg/mL in assay [2]. Further, the “change of MIC at acidic pH compared to pH 7.0” value in the assay on H. pylori (strain 60190) [4] is reported as “increased”. Moreover, the minimal bactericidal concentration (MBC) in the assay with H. pylori strain 60190 (setting [8]) was determined as 0.25 µg/mL (≈ 0.334 µM).
Turning to `CC1(C)S[C@@H]2[C@H](NC(=O)[C@H](N)c3ccc(O)cc3)C(=O)N2[C@H]1C(=O)O` [Amoxicillin, amoxicillin], the “FICI value Niclosamide” value in the assay with H. pylori (strain 60190) [1] is reported as 2.0. The “effect on bacterial adhesion” value in [5] was “eliminated bacterial adhesion completely”. Besides, the “change in MIC through at least 10 passages” value in assay [3] turned out to be 2 fold. Further, the “increase in MIC during continuous passage” value in assay [3] was found to be 2 fold. Further, the MIC against H. Pylori 43504 was 0.03 µg/mL (≈ 0.0821 µM); against H. Pylori 51932, 0.01 µg/mL (≈ 0.0274 µM); against H. Pylori 49503, 0.01 µg/mL (≈ 0.0274 µM); in assay [2] it was 0.01 µg/mL. The “change of MIC at acidic pH compared to pH 7.0” value with H. pylori (strain 60190) [4] is “increased”. In addition, in [6], the “effect on IL-8 secretion” value was “inhibited IL-8 secretion”. Further, in assay [7], the “effect on intracellular bacteria” value is listed as “eliminated bacteria completely”. Besides, in the assay with H. pylori strain 60190 (setting [8]), the MBC worked out at 0.5 µg/mL (≈ 1.37 µM). The “morphology by SEM” value with H. pylori bacteria (0.1 μg/mL (10×MIC)) was “morphological changes and decreased cell size”.
As to `O=C(Nc1ccc(Oc2ccc(Cl)cc2)c(Cl)c1)c1cc(I)cc(I)c1O` [Rafoxanide, rafoxanide], the MBC against H. pylori strain 60190 (Helicobacter pylori, 60190) is 8 µg/mL (≈ 12.8 µM).
